Data published in EP4467141A1, “PYRAZOLO-QUINOLINES AS SELECTIVE INHIBITORS OF GENOTOXIC STRESS-INDUCED IKK/NF- KB PATHWAYS FOR CANCER THERAPY” (Max-Delbrück-Centrum für Molekulare Medizin in der …, priority 2023, dated 2024).

How the values were obtained:
Assay in all cases: Kinase panel study
Format in all cases: biochemical
Details in all cases: read-out: Percentage of inhibition; for inhibition at 1 µM: 1000nM; for inhibition at 10 µM: 10000nM
GSK3A (GSK3 alpha) = molecular target: T1, GSK3A (GSK3 alpha) (Homo sapiens, UniProt P49840)
T1 construct: purchased Thermo Fisher Scientific
Outline: (§1)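 A commercial kinase profiling service ran the assays according to its ZLyte or Adapta standard protocols. Compound was present at 10 µM or 1 µM, and kinase activity loss was expressed as percent inhibition.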

PAK6 = molecular target: T2, PAK6 (Homo sapiens, UniProt Q9NQU5)
T2 construct: purchased Thermo Fisher Scientific
T2 sequence (Q9NQU5 whole entry): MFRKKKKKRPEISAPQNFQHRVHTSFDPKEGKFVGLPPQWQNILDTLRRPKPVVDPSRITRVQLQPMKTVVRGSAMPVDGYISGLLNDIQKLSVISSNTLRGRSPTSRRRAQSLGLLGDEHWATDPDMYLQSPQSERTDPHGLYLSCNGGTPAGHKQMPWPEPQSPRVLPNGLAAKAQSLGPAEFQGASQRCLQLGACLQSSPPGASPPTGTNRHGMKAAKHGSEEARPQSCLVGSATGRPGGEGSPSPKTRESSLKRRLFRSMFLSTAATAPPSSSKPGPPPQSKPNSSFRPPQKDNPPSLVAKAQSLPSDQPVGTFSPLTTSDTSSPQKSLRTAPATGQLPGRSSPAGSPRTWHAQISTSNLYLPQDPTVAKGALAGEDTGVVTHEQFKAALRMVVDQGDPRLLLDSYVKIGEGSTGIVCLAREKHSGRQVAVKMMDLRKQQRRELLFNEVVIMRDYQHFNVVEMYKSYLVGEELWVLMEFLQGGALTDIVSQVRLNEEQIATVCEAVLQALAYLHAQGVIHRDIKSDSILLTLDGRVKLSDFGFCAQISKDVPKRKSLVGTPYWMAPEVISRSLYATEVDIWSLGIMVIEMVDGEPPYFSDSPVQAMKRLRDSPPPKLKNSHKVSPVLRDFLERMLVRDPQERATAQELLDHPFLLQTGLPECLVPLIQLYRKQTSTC
Outline: as §1

LRRK2 G2019S = molecular target: T3, LRRK2 G2019S (Homo sapiens, UniProt Q5S007, G2019S)
T3 construct: purchased Thermo Fisher Scientific
Outline: as §1

ROCK2 = molecular target: T4, ROCK2 (Homo sapiens, UniProt O75116)
T4 construct: purchased Thermo Fisher Scientific
Outline: as §1

MAP4K4 (HGK) = molecular target: T5, MAP4K4 (HGK) (Homo sapiens, UniProt O95819)
T5 construct: purchased Thermo Fisher Scientific
T5 sequence (O95819 whole entry): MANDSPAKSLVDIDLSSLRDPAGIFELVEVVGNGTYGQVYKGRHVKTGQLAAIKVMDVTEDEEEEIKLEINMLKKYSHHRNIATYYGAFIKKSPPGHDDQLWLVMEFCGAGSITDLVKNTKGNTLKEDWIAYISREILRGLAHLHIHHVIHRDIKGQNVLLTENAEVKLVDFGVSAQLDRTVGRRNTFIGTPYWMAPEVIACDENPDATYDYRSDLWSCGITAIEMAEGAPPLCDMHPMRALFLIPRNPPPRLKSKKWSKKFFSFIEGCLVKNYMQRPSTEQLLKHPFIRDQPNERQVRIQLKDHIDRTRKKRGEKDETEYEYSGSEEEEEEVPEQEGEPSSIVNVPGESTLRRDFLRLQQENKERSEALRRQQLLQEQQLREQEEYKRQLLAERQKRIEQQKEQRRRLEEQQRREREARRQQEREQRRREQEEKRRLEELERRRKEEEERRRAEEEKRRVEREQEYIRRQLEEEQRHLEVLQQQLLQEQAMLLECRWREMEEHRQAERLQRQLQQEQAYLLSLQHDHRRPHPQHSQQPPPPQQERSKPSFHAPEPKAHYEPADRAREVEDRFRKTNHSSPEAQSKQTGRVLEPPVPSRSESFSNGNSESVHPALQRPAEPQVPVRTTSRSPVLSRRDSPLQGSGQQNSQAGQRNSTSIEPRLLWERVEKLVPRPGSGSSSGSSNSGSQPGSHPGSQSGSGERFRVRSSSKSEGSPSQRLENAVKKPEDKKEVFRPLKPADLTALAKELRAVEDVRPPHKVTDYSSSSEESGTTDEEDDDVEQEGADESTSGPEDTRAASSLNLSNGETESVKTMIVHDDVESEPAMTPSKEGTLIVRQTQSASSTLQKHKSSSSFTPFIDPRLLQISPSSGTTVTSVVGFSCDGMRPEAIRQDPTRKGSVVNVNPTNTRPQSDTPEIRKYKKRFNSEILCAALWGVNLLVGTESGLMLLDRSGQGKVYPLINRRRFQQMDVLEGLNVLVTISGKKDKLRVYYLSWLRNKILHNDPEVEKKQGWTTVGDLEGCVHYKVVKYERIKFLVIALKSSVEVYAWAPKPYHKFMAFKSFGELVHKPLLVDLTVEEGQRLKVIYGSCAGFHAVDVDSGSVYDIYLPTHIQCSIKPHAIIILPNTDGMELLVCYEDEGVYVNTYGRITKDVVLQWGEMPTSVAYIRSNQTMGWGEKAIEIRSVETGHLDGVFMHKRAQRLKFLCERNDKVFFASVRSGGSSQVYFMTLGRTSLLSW
Outline: as §1

ERBB4 (HER4) = molecular target: T6, ERBB4 (HER4) (Homo sapiens, UniProt Q15303)
T6 construct: purchased Thermo Fisher Scientific
Outline: as §1

HIPK2 = molecular target: T7, HIPK2 (Homo sapiens, UniProt Q9H2X6)
T7 construct: purchased Thermo Fisher Scientific
Outline: as §1

RPS6KA6 (RSK4) = molecular target: T8, RPS6KA6 (RSK4) (Homo sapiens, UniProt Q9UK32)
T8 construct: purchased Thermo Fisher Scientific
Outline: as §1

CDK18/cyclin Y = molecular target: T9, CDK18/cyclin Y (Homo sapiens, UniProt Q07002)
T9 construct: purchased Thermo Fisher Scientific
T9 sequence (Q07002 whole entry): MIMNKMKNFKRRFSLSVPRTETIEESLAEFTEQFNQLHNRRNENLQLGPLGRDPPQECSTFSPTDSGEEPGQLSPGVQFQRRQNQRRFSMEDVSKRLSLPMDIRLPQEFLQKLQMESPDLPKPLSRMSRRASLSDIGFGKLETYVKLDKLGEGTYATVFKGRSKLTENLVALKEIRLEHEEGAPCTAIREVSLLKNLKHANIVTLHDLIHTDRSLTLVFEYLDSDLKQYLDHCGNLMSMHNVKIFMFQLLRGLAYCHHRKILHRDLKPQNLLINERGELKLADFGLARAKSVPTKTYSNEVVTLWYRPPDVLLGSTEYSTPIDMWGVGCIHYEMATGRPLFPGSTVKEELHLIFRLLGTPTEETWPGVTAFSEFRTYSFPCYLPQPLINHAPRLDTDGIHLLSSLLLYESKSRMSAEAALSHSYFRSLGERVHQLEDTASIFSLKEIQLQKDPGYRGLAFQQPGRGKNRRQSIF
T9 sequence (Q8ND76 whole entry partner): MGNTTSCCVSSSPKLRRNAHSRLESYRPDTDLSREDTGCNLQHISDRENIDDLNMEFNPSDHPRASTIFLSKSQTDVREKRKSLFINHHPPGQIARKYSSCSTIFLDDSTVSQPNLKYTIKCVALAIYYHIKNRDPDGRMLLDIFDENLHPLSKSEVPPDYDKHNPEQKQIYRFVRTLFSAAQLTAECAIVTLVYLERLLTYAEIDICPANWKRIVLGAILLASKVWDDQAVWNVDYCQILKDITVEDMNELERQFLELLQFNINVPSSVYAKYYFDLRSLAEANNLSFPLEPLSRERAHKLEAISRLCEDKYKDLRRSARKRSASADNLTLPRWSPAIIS
Outline: as §1

KIT V560G = molecular target: T10, KIT V560G (Homo sapiens, UniProt P10721, V560G)
T10 construct: purchased Thermo Fisher Scientific
Outline: as §1

MAPK13 (p38 delta) = molecular target: T11, MAPK13 (p38 delta) (Homo sapiens, UniProt O15264)
T11 construct: purchased Thermo Fisher Scientific
T11 sequence (O15264 1-365): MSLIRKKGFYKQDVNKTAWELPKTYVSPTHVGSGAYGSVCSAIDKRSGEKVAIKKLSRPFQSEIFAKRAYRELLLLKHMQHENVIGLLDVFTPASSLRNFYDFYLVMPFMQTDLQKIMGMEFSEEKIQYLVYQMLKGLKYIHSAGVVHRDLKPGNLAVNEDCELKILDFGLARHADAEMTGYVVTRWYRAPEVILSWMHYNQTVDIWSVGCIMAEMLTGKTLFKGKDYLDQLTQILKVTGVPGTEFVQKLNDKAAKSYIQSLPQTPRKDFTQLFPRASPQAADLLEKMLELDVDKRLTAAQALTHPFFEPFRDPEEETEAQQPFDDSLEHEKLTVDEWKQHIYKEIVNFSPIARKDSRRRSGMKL
Outline: as §1

PRKCH (PKC eta) = molecular target: T12, PRKCH (PKC eta) (Homo sapiens, UniProt P24723)
T12 construct: purchased Thermo Fisher Scientific
Outline: as §1

FGFR2 N549H = molecular target: T13, FGFR2 N549H (Homo sapiens, UniProt P21802, N549H)
T13 construct: purchased Thermo Fisher Scientific
Outline: as §1

CDC42 BPB (MRCKB) = molecular target: T14, CDC42 BPB (MRCKB) (Homo sapiens, UniProt Q9Y5S2)
T14 construct: purchased Thermo Fisher Scientific
Outline: as §1

PHKG1 = molecular target: T15, PHKG1 (Homo sapiens, UniProt Q16816)
T15 construct: purchased Thermo Fisher Scientific
T15 sequence (Q16816 whole entry): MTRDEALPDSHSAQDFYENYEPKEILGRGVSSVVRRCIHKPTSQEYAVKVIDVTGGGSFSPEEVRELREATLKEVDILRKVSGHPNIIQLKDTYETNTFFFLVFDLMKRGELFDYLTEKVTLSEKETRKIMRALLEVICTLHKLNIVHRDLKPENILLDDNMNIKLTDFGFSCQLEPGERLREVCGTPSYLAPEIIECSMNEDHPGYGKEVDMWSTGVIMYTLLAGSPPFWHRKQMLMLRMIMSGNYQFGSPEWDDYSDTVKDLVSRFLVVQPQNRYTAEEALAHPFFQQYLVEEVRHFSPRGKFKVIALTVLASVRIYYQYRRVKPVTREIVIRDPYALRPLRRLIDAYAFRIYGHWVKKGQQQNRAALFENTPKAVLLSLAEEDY
Outline: as §1

LYN B = molecular target: T16, LYN B (Homo sapiens, UniProt P07948)
T16 construct: purchased Thermo Fisher Scientific
Outline: as §1

MAPK7 (ERK5) = molecular target: T17, MAPK7 (ERK5) (Homo sapiens, UniProt Q13164)
T17 construct: purchased Thermo Fisher Scientific
Outline: as §1

CDK5/p25 = molecular target: T18, CDK5/p25 (Homo sapiens, UniProt Q00535)
T18 construct: purchased Thermo Fisher Scientific
T18 sequence (Q00535 whole entry): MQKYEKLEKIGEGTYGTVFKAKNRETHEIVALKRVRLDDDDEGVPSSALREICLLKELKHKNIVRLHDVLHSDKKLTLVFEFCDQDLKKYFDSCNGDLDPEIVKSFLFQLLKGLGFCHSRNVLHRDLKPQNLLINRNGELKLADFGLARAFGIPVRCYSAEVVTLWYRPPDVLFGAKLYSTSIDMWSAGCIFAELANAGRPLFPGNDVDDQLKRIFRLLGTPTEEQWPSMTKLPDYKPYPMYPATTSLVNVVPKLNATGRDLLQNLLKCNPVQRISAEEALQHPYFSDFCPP
T18 sequence (Q15078 99-307 partner limits assumed): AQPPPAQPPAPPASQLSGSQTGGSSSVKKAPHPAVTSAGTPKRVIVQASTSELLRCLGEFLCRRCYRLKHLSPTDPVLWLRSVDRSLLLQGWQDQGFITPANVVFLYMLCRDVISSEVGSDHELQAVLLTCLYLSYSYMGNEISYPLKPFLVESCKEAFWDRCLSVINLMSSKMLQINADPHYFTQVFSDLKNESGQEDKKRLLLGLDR
Outline: as §1

PLK1 = molecular target: T19, PLK1 (Homo sapiens, UniProt P53350)
T19 construct: purchased Thermo Fisher Scientific
T19 sequence (P53350 whole entry): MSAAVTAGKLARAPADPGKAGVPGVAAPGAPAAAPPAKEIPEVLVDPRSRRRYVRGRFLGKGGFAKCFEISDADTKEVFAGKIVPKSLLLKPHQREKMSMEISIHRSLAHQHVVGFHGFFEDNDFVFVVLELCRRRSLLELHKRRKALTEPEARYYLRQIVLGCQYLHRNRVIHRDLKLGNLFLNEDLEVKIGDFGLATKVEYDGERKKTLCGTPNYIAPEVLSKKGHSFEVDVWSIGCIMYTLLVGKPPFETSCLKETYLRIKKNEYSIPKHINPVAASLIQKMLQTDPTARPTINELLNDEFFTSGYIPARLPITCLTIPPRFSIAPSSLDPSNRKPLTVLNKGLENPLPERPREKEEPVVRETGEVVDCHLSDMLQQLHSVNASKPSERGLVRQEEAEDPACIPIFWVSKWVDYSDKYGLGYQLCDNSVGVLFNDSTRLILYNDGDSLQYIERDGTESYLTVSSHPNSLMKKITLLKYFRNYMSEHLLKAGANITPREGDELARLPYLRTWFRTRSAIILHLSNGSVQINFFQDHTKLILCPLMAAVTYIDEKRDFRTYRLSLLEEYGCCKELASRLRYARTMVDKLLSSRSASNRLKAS
Outline: as §1

PIM1 = molecular target: T20, PIM1 (Homo sapiens, UniProt P11309)
T20 construct: purchased Thermo Fisher Scientific
T20 sequence (P11309 whole entry): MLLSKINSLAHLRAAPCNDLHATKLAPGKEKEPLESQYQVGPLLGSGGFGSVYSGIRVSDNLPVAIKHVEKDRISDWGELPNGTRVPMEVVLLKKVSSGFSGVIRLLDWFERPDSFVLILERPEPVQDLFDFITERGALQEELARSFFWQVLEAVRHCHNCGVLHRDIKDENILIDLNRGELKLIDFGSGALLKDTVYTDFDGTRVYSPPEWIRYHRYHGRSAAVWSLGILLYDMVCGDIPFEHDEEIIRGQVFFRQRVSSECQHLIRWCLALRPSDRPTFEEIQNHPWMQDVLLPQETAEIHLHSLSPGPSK
Outline: as §1

AMPK A1/B1/G1 = molecular target: T21, AMPK A1/B1/G1 (Homo sapiens, UniProt Q13131)
T21 construct: purchased Thermo Fisher Scientific
Outline: as §1

For COc1ccc2c(c1OC)c(=O)n1c3ccc(O)cc3c3ccnc2c31 [MW01, 5-Hydroxy-10,11-dimethoxy-9H-benzo[c]indolo[3,2,1-ij][1,5]naphthyridin-9-one], the inhibition at 1 µM (GSK3A (GSK3 alpha)) was 25%, the inhibition at 10 µM (GSK3A (GSK3 alpha)) was 55% and the inhibition at 1 µM (PAK6) was 5%. It also gave an inhibition at 10 µM (PAK6) of -10%, an inhibition at 1 µM (LRRK2 G2019S) of 90% and an inhibition at 10 µM (LRRK2 G2019S) of 93%. The inhibition at 1 µM (ROCK2) was 14%, the inhibition at 10 µM (ROCK2) was 18% and the inhibition at 1 µM (MAP4K4 (HGK)) was 64%. The inhibition at 10 µM (MAP4K4 (HGK)) was 80%, the inhibition at 1 µM (ERBB4 (HER4)) was -3% and the inhibition at 10 µM (ERBB4 (HER4)) was 4%. The inhibition at 1 µM (HIPK2) was 48%, the inhibition at 10 µM (HIPK2) was 74% and the inhibition at 1 µM (RPS6KA6 (RSK4)) was 5%. The inhibition at 10 µM (RPS6KA6 (RSK4)) was 17%, the inhibition at 1 µM (CDK18/cyclin Y) was 5% and the inhibition at 10 µM (CDK18/cyclin Y) was 15%. It also gave an inhibition at 1 µM (KIT V560G) of 12%, an inhibition at 10 µM (KIT V560G) of 7% and an inhibition at 1 µM (MAPK13 (p38 delta)) of 13%. The inhibition at 10 µM (MAPK13 (p38 delta)) was 11%, the inhibition at 1 µM (PRKCH (PKC eta)) was 1% and the inhibition at 10 µM (PRKCH (PKC eta)) was 7%. It also gave an inhibition at 1 µM (FGFR2 N549H) of 0%, an inhibition at 10 µM (FGFR2 N549H) of 13% and an inhibition at 1 µM (CDC42 BPB (MRCKB)) of 0%. For the same compound, the inhibition at 10 µM (CDC42 BPB (MRCKB)) was 5%, the inhibition at 1 µM (PHKG1) was 8% and the inhibition at 10 µM (PHKG1) was 12%. For the same compound, the inhibition at 1 µM (LYN B) was 6%, the inhibition at 10 µM (LYN B) was 23% and the inhibition at 1 µM (MAPK7 (ERK5)) was 9%. It also gave an inhibition at 10 µM (MAPK7 (ERK5)) of 1%, an inhibition at 1 µM (CDK5/p25) of 4% and an inhibition at 10 µM (CDK5/p25) of 12%. The inhibition at 1 µM (PLK1) was 5%, the inhibition at 10 µM (PLK1) was 3% and the inhibition at 1 µM (PIM1) was 11%. The inhibition at 10 µM (PIM1) was 24%, the inhibition at 1 µM (AMPK A1/B1/G1) was 4% and the inhibition at 10 µM (AMPK A1/B1/G1) was 14%.
COc1ccc2cc3c(N)nn(C(=O)c4cccc(N(C)C)c4)c3nc2c1 [MW05, (3-Amino-7-methoxypyrazolo[3,4-b]quinolin-1-yl)-[3-(dimethylamino)phenyl]methanone] was tested, and the inhibition at 1 µM (GSK3A (GSK3 alpha)) was 3%, the inhibition at 10 µM (GSK3A (GSK3 alpha)) was 18% and the inhibition at 1 µM (PAK6) was 11%. It also gave an inhibition at 10 µM (PAK6) of 3%, an inhibition at 1 µM (LRRK2 G2019S) of -2% and an inhibition at 10 µM (LRRK2 G2019S) of 16%. It also gave an inhibition at 1 µM (ROCK2) of 14%, an inhibition at 10 µM (ROCK2) of 4% and an inhibition at 1 µM (MAP4K4 (HGK)) of 9%. For the same compound, the inhibition at 10 µM (MAP4K4 (HGK)) was 11%, the inhibition at 1 µM (ERBB4 (HER4)) was 5% and the inhibition at 10 µM (ERBB4 (HER4)) was -11%. The inhibition at 1 µM (HIPK2) was 4%, the inhibition at 10 µM (HIPK2) was 13% and the inhibition at 1 µM (RPS6KA6 (RSK4)) was 2%. For the same compound, the inhibition at 10 µM (RPS6KA6 (RSK4)) was 4%, the inhibition at 1 µM (CDK18/cyclin Y) was 13% and the inhibition at 10 µM (CDK18/cyclin Y) was 55%. The inhibition at 1 µM (KIT V560G) was 11%, the inhibition at 10 µM (KIT V560G) was 2% and the inhibition at 1 µM (MAPK13 (p38 delta)) was 8%. The inhibition at 10 µM (MAPK13 (p38 delta)) was 9%, the inhibition at 1 µM (PRKCH (PKC eta)) was -3% and the inhibition at 10 µM (PRKCH (PKC eta)) was -9%. For the same compound, the inhibition at 1 µM (FGFR2 N549H) was -4%, the inhibition at 10 µM (FGFR2 N549H) was -22% and the inhibition at 1 µM (CDC42 BPB (MRCKB)) was 5%. It also gave an inhibition at 10 µM (CDC42 BPB (MRCKB)) of -6%, an inhibition at 1 µM (PHKG1) of 3% and an inhibition at 10 µM (PHKG1) of -11%. For the same compound, the inhibition at 1 µM (LYN B) was 6%, the inhibition at 10 µM (LYN B) was 0% and the inhibition at 1 µM (MAPK7 (ERK5)) was 2%. The inhibition at 10 µM (MAPK7 (ERK5)) was -7%, the inhibition at 1 µM (CDK5/p25) was 4% and the inhibition at 10 µM (CDK5/p25) was 8%. The inhibition at 1 µM (PLK1) was 6%, the inhibition at 10 µM (PLK1) was 6% and the inhibition at 1 µM (PIM1) was 8%. It also gave an inhibition at 10 µM (PIM1) of -9%, an inhibition at 1 µM (AMPK A1/B1/G1) of 6% and an inhibition at 10 µM (AMPK A1/B1/G1) of -3%.
